Measurements as given in patent US20210198277A1, “AMINE-SUBSTITUTED ARYL OR HETEROARYL COMPOUNDS” (Epizyme, Inc., priority 2016, published 2021).

Target: T1, EHMT1 (Homo sapiens, UniProt Q9H9B1)
T1 sequence (Q9H9B1 1-1298): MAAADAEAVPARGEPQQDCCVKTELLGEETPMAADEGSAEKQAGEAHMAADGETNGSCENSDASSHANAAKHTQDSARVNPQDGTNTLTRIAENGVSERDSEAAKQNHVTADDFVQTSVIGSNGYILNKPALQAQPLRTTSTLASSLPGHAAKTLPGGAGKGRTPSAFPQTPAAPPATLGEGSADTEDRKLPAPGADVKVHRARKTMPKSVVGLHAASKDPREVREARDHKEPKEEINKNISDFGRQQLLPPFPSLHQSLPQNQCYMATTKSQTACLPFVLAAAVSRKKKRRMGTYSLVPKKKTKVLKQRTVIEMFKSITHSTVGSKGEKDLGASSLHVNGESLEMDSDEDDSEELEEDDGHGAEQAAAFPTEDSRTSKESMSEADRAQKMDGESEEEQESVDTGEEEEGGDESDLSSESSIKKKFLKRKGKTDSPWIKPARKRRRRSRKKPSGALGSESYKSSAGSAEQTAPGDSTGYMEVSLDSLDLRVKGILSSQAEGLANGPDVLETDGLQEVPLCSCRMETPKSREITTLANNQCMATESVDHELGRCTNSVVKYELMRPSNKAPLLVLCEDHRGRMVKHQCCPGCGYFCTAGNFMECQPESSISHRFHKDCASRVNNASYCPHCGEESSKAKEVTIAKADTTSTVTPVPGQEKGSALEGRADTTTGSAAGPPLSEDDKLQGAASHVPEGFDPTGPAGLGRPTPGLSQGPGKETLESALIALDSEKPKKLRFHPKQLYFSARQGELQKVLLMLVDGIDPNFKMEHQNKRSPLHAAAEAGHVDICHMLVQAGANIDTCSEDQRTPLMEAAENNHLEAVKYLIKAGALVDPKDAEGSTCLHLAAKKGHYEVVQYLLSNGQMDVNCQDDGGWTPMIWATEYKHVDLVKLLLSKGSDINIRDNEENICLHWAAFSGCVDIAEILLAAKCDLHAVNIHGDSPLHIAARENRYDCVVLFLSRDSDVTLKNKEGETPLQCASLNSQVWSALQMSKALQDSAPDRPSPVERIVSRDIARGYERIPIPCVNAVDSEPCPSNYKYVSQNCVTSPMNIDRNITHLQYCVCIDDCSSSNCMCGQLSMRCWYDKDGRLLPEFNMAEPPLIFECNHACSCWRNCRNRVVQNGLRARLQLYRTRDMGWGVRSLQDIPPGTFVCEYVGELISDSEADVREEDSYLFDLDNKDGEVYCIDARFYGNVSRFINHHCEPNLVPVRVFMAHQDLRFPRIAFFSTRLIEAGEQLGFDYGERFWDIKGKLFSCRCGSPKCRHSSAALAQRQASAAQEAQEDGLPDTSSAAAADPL
Assay: EHMT1 enzyme assay on peptide substrate (EHMT1 PEP)
Type: biochemical
Details: Table VI; read-out: EHMT1 PEP IC50

| IC50 [nM] | SMILES |
| --- | --- |
| < 100 | CNc1cc(C)nc(Nc2ccc(OC)c(OCC(O)CN3CCCC3)c2)n1 (stereo in doubt) [Compound 906, (2S)-1-(2-methoxy-5-[[4-methyl-6-(methylamino)pyrimidin-2-yl]amino]phenoxy)-3-(pyrrolidin-1-yl)propan-2-ol] |
| > 10000 | COc1ncc(Nc2nc(C)cc(NCC3COC3)n2)cc1OC[C@@H](O)CN1CCCC1 [Compound 883] |
| > 10000 | COc1ncc(Nc2nc(C)cc(NCC3COC3)n2)cc1OC[C@H](O)CN1CCCC1 [Compound 884] |
| 1000 to 10000 | CNc1cc(C)nc(Nc2cc(OC[C@@H](O)CN3CCCC3)c(OC)cn2)n1 [Compound 885] |
| 1000 to 10000 | CNc1cc(C)nc(Nc2cc(OC[C@H](O)CN3CCCC3)c(OC)cn2)n1 [Compound 886] |
| 100 to 1000 | CNC(=O)CCNc1cc(C)nc(Nc2cnc(OC)c(OCCCN3CCCC3)c2)n1 [Compound 887] |
| 100 to 1000 | CNC(=O)N1CC(CNc2cc(C)nc(Nc3cnc(OC)c(OCCCN4CCCC4)c3)n2)C1 [Compound 888] |
| > 10000 | CNc1cc(C)nc(Nc2ccc(OC)c(OCCCc3nc(Cl)c[nH]3)c2)n1 [Compound 890] |
| > 10000 | CNc1cc(C)nc(Nc2ccc(OC)c(OCCCc3nc(Cl)cn3C)c2)n1 [Compound 891] |
| < 100 | CNS(=O)(=O)CCNc1cc(C)nc(Nc2ccc(OC)c(OCCCN3CCCC3)c2)n1 [Compound 892] |
| < 100 | COc1ccc(Nc2nc(C)cc(NCCS(=O)(=O)N(C)C)n2)cc1OCCCN1CCCC1 [Compound 893] |
| 100 to 1000 | COc1cnc(Nc2cc(NCC3COC3)cnn2)cc1OCCCN1CCCC1 [Compound 894] |
| > 10000 | COc1cc2cc(C#N)c(C)nc2cc1OCCCN1CCCC1 [Compound 895] |
| > 10000 | COc1cc2cc(F)c(C)nc2cc1OCCCN1CCCC1 [Compound 896] |
| 1000 to 10000 | CNc1nc2cc(OCCCN3CCCC3)c(OC)cc2cc1F [Compound 897] |

The next lines start with the compound.

| SMILES | IC50 [nM] |
| --- | --- |
| COc1cnc(Nc2cccc3[nH]nnc23)cc1OCCCN1CCCC1 [Compound 619] | > 10000 |
| CCN1CC(COc2cc(Nc3cccn4cnnc34)ncc2OC)C1 [Compound 620] | > 10000 |
| CNc1cc(C)nc(Nc2c[nH]c(=O)c(OCCCN3CCCC3)c2)n1 [Compound 621] | 1000 to 10000 |
| CNc1cc(C)nc(Nc2cc(OCCCN3CCCC3)c3nncn3c2)n1 [Compound 622] | 1000 to 10000 |
| CNc1cc(C)nc(Nc2cc(OCCCN3CCCC3)c3ncnn3c2)n1 [Compound 623] | 1000 to 10000 |
| CNc1cc(C)nc(Nc2cc(OCCCN3CCCC3)c3[nH]nnc3c2)n1 [Compound 624] | < 100 |
| COc1cc2c(C3CCN(C)CC3)cc(N3CCCC3)nc2cc1OCCCN1CCCC1 [Compound 625] | < 100 |
| COc1cc2c(C3CCN([C@H]4CCOC4)CC3)cc(C)nc2cc1OCCCN1CCCC1 [Compound 864] | < 100 |
| CCNc1cc(C2CCOCC2)c2cc(OC)c(OCCCN3CCCC3)cc2n1 [Compound 865] | < 100 |
| CNc1cc(C2CCN([C@@H]3CCOC3)CC2)c2cc(OC)c(OCCCN3CCCC3)cc2n1 [Compound 866] | < 100 |
| CNc1cc(C2CCN([C@H]3CCOC3)CC2)c2cc(OC)c(OCCCN3CCCC3)cc2n1 [Compound 867] | < 100 |
| COc1ccc(Nc2nc(C)cc(C3CCOCC3)n2)cc1OCCCN1CCCC1 [Compound 870] | > 10000 |
| CNc1cc(C)nc(Nc2ccc(OC)c(C(=O)NCc3ccccc3)c2)n1 [Compound 871] | > 10000 |
| CNc1cc(C)nc(Nc2ccc(OC)c(C(=O)NC3CCN(C)CC3)c2)n1 [Compound 873] | > 10000 |
| CNc1cc(C)nc(Nc2ccc(CNC(=O)c3ccccc3)c(OC)c2)n1 [Compound 876] | > 10000 |
| CNc1cc(C)nc(Nc2ccc(C(=O)NCc3ccccc3)c(OC)c2)n1 [Compound 877] | > 10000 |
| CNc1cc(C)nc(Nc2cnc(OC)c(OC[C@@H](O)CN3CCCC3)c2)n1 [Compound 881] | 100 to 1000 |
| CNc1cc(C)nc(Nc2cnc(OC)c(OC[C@H](O)CN3CCCC3)c2)n1 [Compound 882] | 100 to 1000 |
